Measurements from US6143769A, “Phenylacetic acid benzylamides” (Karl Thomae GmbH, priority 1983, dated 2000).
Read-outs that look alike come from different tables or passages of the source.

Columns and labels:
Assay type in all cases: in vivo, human
glucose = experiment: Study 3: whole blood glucose, single fasting test subject, crossover
[1] = Study 1: plasma concentration, non-stereoselective HPLC
[2] = Study 3: plasma concentration of active substance, single test subject; conditions: for Cmax: read-out: Maximum concentration; for Tmax: read-out: Time of peak concentration; for concentration at 1.5 h: 1.50 h; for concentration at 2.5 h: 2.50 h; for concentration at 3.5 h: 3.50 h
[3] = Study 2: plasma concentration, HPLC; conditions: 2 mg capsule, 0 h
From the text: Blood samples were taken at various times.

For CCOc1cc(CC(=O)NC(CC(C)C)c2ccccc2N2CCCCC2)ccc1C(=O)O (racemic) [AG-EE 388 ZW, 2-ethoxy-4-[N-[1-(2-piperidino-phenyl)-3-methyl-1-butyl]aminocarbonylmethyl]-benzoic acid], the “Time of maximum blood sugar reduction” value (glucose; 2 mg) was 2.0 h, the “Glucose, deviation against t = 0” value (glucose; 2 mg capsule, 0 h) was 0% and the “Glucose, deviation against t = 0” value (glucose; 2 mg, 0.50 h) was 0%. The “Glucose, deviation against t = 0” value (glucose; 2 mg, 0.75 h) was 0%, the “Glucose, deviation against t = 0” value (glucose; 2 mg, 1.00 h) was -5% and the “Glucose, deviation against t = 0” value (glucose; 2 mg, 1.25 h) was -12%. For the same compound, the “Glucose, deviation against t = 0” value (glucose; 2 mg, 1.50 h) was -18%, the “Glucose, deviation against t = 0” value (glucose; 2 mg, 1.75 h) was -23% and the “Glucose, deviation against t = 0” value (glucose; 2 mg, 2.00 h) was -29%. The “Glucose, deviation against t = 0” value (glucose; 2 mg, 2.50 h) was -27%, the “Glucose, deviation against t = 0” value (glucose; 2 mg, 3.00 h) was -21% and the “Glucose, deviation against t = 0” value (glucose; 2 mg, 4.00 h) was -17%. The “Glucose, deviation against t = 0” value (glucose; 2 mg, 5.00 h) was -17%, the “Glucose, deviation against t = 0” value (glucose; 2 mg, 6.00 h) was -16% and the “Maximum lowering of blood glucose” value (glucose; 4 mg) was -38%. For the same compound, the Onset of effect (glucose; 4 mg) was “about 1.0 hour”, the “Time of maximum blood sugar reduction” value (glucose; 4 mg) was 2.0 h and the “Glucose, deviation against t = 0” value (glucose; 4 mg capsule, 0 h) was 0%. For the same compound, the “Glucose, deviation against t = 0” value (glucose; 4 mg, 0.50 h) was -3%, the “Glucose, deviation against t = 0” value (glucose; 4 mg, 0.75 h) was -1% and the “Glucose, deviation against t = 0” value (glucose; 4 mg, 1.00 h) was -7%. For the same compound, the “Glucose, deviation against t = 0” value (glucose; 4 mg, 1.25 h) was -15%, the “Glucose, deviation against t = 0” value (glucose; 4 mg, 1.50 h) was -21% and the “Glucose, deviation against t = 0” value (glucose; 4 mg, 1.75 h) was -32%. The “Glucose, deviation against t = 0” value (glucose; 4 mg, 2.00 h) was -38%, the “Glucose, deviation against t = 0” value (glucose; 4 mg, 2.50 h) was -34% and the “Glucose, deviation against t = 0” value (glucose; 4 mg, 3.00 h) was -28%. For the same compound, the “Glucose, deviation against t = 0” value (glucose; 4 mg, 3.50 h) was -24%, the “Glucose, deviation against t = 0” value (glucose; 4 mg, 4.00 h) was -26% and the “Glucose, deviation against t = 0” value (glucose; 4 mg, 5.00 h) was -24%. For the same compound, the “Glucose, deviation against t = 0” value (glucose; 4 mg, 6.00 h) was -23%, the “Glucose, deviation against t = 0” value (glucose; 4 mg, 7.00 h) was -20% and the “Glucose, deviation against t = 0” value (glucose; 4 mg, 8.00 h) was -25%. The “Concentration (mean)” value ([1]; 2 mg capsule, 0 h) was 0.0 ng/mL, the “Concentration (mean)” value ([1]; 2 mg capsule, 10.00 h) was 0.0 ng/mL and the “Time at which level reaches the detection limit” value ([1]; 2 mg capsule, limit 5 ng/ml) was 5 h. It also gave a concentration at 0.5 h ([1]; human, plasma, po, 2 mg, 2 mg capsule, 0.50 h) of 55.8 ng/mL, a concentration at 0.75 h ([1]; human, plasma, po, 2 mg, 2 mg capsule, 0.75 h) of 82.9 ng/mL and a concentration at 1 h ([1]; human, plasma, po, 2 mg, 2 mg capsule, 1.00 h) of 82.8 ng/mL. The concentration at 1.5 h ([1]; human, plasma, po, 2 mg, 2 mg capsule, 1.50 h) was 64.7 ng/mL, the concentration at 2 h ([1]; human, plasma, po, 2 mg, 2 mg capsule, 2.00 h) was 58.3 ng/mL and the concentration at 3 h ([1]; human, plasma, po, 2 mg, 2 mg capsule, 3.00 h) was 29.4 ng/mL. The concentration at 4 h ([1]; human, plasma, po, 2 mg, 2 mg capsule, 4.00 h) was 16.3 ng/mL, the concentration at 5 h ([1]; human, plasma, po, 2 mg, 2 mg capsule, 5.00 h) was 9 ng/mL and the concentration at 6 h ([1]; human, plasma, po, 2 mg, 2 mg capsule, 6.00 h) was 4.2 ng/mL. The concentration at 8 h ([1]; human, plasma, po, 2 mg, 2 mg capsule, 8.00 h) was 1.2 ng/mL, the Cmax ([1]; human, plasma, po, 2 mg capsule p.o., read-out: Maximum concentration) was 83 ± 18 ng/mL and the Active substance concentration ([2]; 2 mg, 5.00 h) was 0 ng/mL. The Active substance concentration ([2]; 4 mg capsule, 0 h) was 0 ng/mL, the Active substance concentration ([2]; 4 mg, 0.50 h) was 0 ng/mL and the Cmax ([2]; human, plasma, po, 2 mg, 2 mg capsule) was 82 ng/mL. The Tmax ([2]; human, plasma, po, 2 mg) was 1.75 h, the Cmax ([2]; human, plasma, po, 4 mg, 4 mg capsule) was 150 ng/mL and the Tmax ([2]; human, plasma, po, 4 mg) was 1.5 h. For the same compound, the concentration at 0.5 h ([2]; human, plasma, po, 2 mg capsule, 0.50 h) was 11 ng/mL, the concentration at 0.75 h ([2]; human, plasma, po, 2 mg) was 16 ng/mL and the concentration at 1 h ([2]; human, plasma, po, 2 mg) was 40 ng/mL. The concentration at 1.25 h ([2]; human, plasma, po, 2 mg) was 44 ng/mL, the concentration at 1.5 h ([2]; human, plasma, po, 2 mg) was 68 ng/mL and the concentration at 1.75 h ([2]; human, plasma, po, 2 mg) was 82 ng/mL. The concentration at 2 h ([2]; human, plasma, po, 2 mg) was 82 ng/mL, the concentration at 2.5 h ([2]; human, plasma, po, 2 mg) was 80 ng/mL and the concentration at 3 h ([2]; human, plasma, po, 2 mg) was 72 ng/mL. It also gave a concentration at 3.5 h ([2]; human, plasma, po, 2 mg) of 59 ng/mL, a concentration at 4 h ([2]; human, plasma, po, 2 mg) of 32 ng/mL and a concentration at 0.75 h ([2]; human, plasma, po, 4 mg) of 10 ng/mL. For the same compound, the concentration at 1 h ([2]; human, plasma, po, 4 mg) was 72 ng/mL, the concentration at 1.25 h ([2]; human, plasma, po, 4 mg) was 130 ng/mL and the concentration at 1.5 h ([2]; human, plasma, po, 4 mg) was 150 ng/mL. The concentration at 1.75 h ([2]; human, plasma, po, 4 mg) was 148 ng/mL, the concentration at 2 h ([2]; human, plasma, po, 4 mg) was 141 ng/mL and the concentration at 2.5 h ([2]; human, plasma, po, 4 mg) was 119 ng/mL. The concentration at 3 h ([2]; human, plasma, po, 4 mg) was 109 ng/mL, the concentration at 3.5 h ([2]; human, plasma, po, 4 mg) was 84 ng/mL and the concentration at 4 h ([2]; human, plasma, po, 4 mg) was 71 ng/mL. For the same compound, the concentration at 5 h ([2]; human, plasma, po, 4 mg, 5.00 h) was 64 ng/mL, the concentration at 6 h ([2]; human, plasma, po, 4 mg, 6.00 h) was 49 ng/mL and the concentration at 7 h ([2]; human, plasma, po, 4 mg, 7.00 h) was 21 ng/mL. For the same compound, the concentration at 8 h ([2]; human, plasma, po, 4 mg, 8.00 h) was 18 ng/mL and the “Concentration (mean)” value [3] was 0.0 ng/mL.
